Data taken from patent US12528767B2, “HDAC6 inhibitors and uses thereof” (Eikonizo Therapeutics, Inc., priority 2019, dated 2026).

System: adult primary rat dorsal root ganglia (DRG)
Experiment: In vitro chemotherapy-induced peripheral neuropathy in rat DRGs treated with cisplatin
Type: cell-based, Sprague Dawley rat
Settings: 5 μM compound + 0.5 mM cisplatin, 4 days
Protocol: ACY-1083, obtained from MedChem Express, is a published HDAC6-selective inhibitor and was used as a benchmark. Blinded DMSO was used as an additional negative control. […] Nerve degeneration was evaluated by blebs per area as visualized by fluorescent imaging of beta tubulin staining. Axon area was also evaluated by fluorescent imaging of beta tubulin staining.
Select exemplary compounds were evaluated for prevention of nerve degeneration in an in vitro chemotherapy induced neuropathy model using adult primary rat dorsal root ganglia (DRG). Compounds were blinded for treatment and analysis, using DMSO as a vehicle control. […] Blebs (fragments) signify the beginning of the nerve degeneration process. Total axon area is related to neuron survival and is a more general measure of neuroprotection.
Dissociation solution (100 mL of HBSS with 2 mL of HEPES (1 M, pH 7.25)) was prepared and precooled to 4° C. on study day 1. A 24 well cell culture plate was coated with ECL. Each well was coated with 0.3 mL of ECL solution (1:25 in sterile PBS) and incubated overnight at 37° C. ECL solution was aspirated and the well plate was rinsed with neurobasal medium on study day 2. […]

SMILES | Nerve degeneration: blebs per area compared to vehicle in the presence of cisplatin (FIG. 3A) | Axon area compared to vehicle in the presence of cisplatin (FIG. 3B)
O=C(NO)c1ccc(CN2C[C@H]3CC[C@@H]2CO3)c(F)c1 (single isomer, unassigned) [compound 173] | decreased blebs per area | 
O=C(NO)c1cc(F)c2c(c1)CCN1CCC[C@@H]21 (single isomer, unassigned) [compound 79] |  | increased axon area
